The text below walks through data of patent publication US11111220B2, “Propanamine derivatives for treating pain and pain related conditions” (ESTEVE PHARMACEUTICALS, S.A., priority 2017, dated 2021).

Test [1] addresses Human Norepinephrine Transporter (NET) (Homo sapiens, UniProt P23975). As to the kind of experiment: Binding assay to human norepinephrine transporter (NET) ([3H]-Nisoxetin). Particulars: Table 2 (dual compounds); human NET enriched membranes, 5 nM [3H]-Nisoxetin; read-out: Ki(nM) NET Hum. The method, then: Binding Assay to Human Norepinephrine Transporter (NET).
Human norepinephrine transporter (NET) enriched membranes (5 μg) were incubated with 5 nM of radiolabeled [3H]-Nisoxetin in assay buffer containing 50 mM Tris-HCl, 120 mM NaCl, 5 mM KCl, pH 7.4.
NSB (non specific binding) was measured by adding 10 μM desipramine. The binding of the test compound was measured in five different concentrations. After 60 min incubation at 4° C., binding reaction was terminated by filtering through Multiscreen GF/C (Millipore) presoaked in 0.5% polyethyleneimine in Vacuum Manifold Station, followed by 3 washes with ice-cold filtration buffer containing 50 mM Tris-HCl, 0.9% NaCl, pH 7.4.
(§1) Filter plates were dried at 60° C. for 1 hour and 30 μl of scintillation cocktail were added to each well before radioactivity reading.
(§2) Readings were performed in a Trilux 1450 Microbeta radioactive counter (Perkin Elmer).

In test [2] the target is Human α2δ-1 Subunit of Cav2.2 Calcium Channel (Homo sapiens, UniProt P54289). Nature of the test: Binding assay to human α2δ-1 subunit of Cav2.2 calcium channel ([3H]-Gabapentin). Particulars: human α2δ-1 enriched membranes, 15 nM [3H]-Gabapentin, read-out: Ki(nM) alpha2delta Hum. The protocol: Binding Assay to Human α2δ-1 Subunit of Cav2.2 Calcium Channel.
Human α2δ-1 enriched membranes (2.5 μg) were incubated with 15 nM of radiolabeled [3H]-Gabapentin in assay buffer containing Hepes-KOH 10 mM, pH 7.4.
NSB (non specific binding) was measured by adding 10 μM pregabalin. The binding of the test compound was measured in five different concentrations. After 60 min incubation at 27° C., binding reaction was terminated by filtering through Multiscreen GF/C (Millipore) presoaked in 0.5% polyethyleneimine in Vacuum Manifold Station, followed by 3 washes with ice-cold filtration buffer containing 50 mM Tris-HCl, pH 7.4.
as §1, §2

Where two headings read alike, the source gives them in different places. A value given as a limit tells only on which side of the number the result lay.

Chain of Human Norepinephrine Transporter (NET) (P23975 whole entry): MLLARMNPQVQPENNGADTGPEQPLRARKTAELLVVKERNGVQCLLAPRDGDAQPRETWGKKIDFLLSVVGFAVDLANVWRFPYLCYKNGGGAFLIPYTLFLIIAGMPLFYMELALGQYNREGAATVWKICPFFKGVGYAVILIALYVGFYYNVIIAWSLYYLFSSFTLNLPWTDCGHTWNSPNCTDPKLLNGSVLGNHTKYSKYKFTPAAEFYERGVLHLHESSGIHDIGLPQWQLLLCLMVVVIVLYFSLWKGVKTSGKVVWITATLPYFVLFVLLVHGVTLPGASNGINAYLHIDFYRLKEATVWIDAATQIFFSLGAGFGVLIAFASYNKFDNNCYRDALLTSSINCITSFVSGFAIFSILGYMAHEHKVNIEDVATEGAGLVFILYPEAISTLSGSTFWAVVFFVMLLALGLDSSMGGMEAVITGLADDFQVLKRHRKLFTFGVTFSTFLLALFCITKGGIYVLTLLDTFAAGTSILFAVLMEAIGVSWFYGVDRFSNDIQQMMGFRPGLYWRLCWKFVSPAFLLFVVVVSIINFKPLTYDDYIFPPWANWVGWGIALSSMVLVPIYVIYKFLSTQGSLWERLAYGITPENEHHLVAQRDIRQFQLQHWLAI
Chain of Human α2δ-1 Subunit of Cav2.2 Calcium Channel (P54289 25-1103): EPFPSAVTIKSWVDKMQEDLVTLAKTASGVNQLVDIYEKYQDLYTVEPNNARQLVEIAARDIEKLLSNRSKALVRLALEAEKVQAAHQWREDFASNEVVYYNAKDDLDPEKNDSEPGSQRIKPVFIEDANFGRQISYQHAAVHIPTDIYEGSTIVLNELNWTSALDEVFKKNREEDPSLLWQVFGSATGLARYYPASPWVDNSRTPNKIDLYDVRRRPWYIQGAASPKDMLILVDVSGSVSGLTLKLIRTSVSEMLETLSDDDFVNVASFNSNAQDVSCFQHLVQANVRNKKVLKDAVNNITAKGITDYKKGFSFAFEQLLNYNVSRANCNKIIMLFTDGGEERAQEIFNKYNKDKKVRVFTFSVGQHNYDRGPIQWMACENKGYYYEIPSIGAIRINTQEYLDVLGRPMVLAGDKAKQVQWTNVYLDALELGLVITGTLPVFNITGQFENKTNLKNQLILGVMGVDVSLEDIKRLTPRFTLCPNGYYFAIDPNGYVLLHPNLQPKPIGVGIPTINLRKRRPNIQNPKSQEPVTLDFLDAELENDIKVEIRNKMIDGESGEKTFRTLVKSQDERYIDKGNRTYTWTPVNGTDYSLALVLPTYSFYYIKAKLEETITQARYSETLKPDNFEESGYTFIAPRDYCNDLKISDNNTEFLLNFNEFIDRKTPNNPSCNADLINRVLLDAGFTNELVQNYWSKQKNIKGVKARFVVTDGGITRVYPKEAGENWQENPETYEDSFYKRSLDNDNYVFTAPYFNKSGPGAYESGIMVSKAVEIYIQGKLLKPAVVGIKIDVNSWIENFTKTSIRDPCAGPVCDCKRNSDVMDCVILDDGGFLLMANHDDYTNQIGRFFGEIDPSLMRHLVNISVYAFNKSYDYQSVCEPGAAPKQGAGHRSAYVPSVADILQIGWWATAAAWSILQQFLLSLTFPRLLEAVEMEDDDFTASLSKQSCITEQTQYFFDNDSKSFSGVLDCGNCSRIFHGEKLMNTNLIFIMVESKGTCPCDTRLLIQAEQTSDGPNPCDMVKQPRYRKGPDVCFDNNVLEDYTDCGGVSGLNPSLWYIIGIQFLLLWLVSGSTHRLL

Take `CNCCC(Oc1cccc(CNCc2ccccc2)c1)c1cccs1` (centres unmarked) [Example 2, 3-(3-((Benzylamino)methyl)phenoxy)-N-methyl-3-(thiophen-2-yl)propan-1-amine]: the Ki in test [1] lay in the range of 100 to 500 nM; in test [2] (Table 1), 500 to 3000 nM; in test [2] (Table 2 (dual compounds)), 500 to 3000 nM.

As for `CNCCC(Oc1cccc(CN(C)Cc2ccccc2)c1)c1cccs1` (centres unmarked) [Example 6, 3-(3-((Benzyl(methyl)amino)methyl)phenoxy)-N-methyl-3-(thiophen-2-yl)propan-1-amine], the Ki in test [1] lay within 500 to 1000 nM; in test [2] (Table 1), 100 to 500 nM; in test [2] (Table 2 (dual compounds)), 100 to 500 nM.

Take `CNCCC(Oc1cccc(C(=O)Nc2ccccc2)c1)c1ccccc1` (centres unmarked) [Example 13, 3-(3-(Methylamino)-1-phenylpropoxy)-N-phenylbenzamide]: the Ki was 500 to 1000 nM in test [1], no less than 3000 nM in test [2] (Table 1) and no less than 3000 nM in test [2] (Table 2 (dual compounds)).

Take `CNCCC(Oc1cccc(C(=O)Nc2cccc(-c3nnc(C)o3)c2)c1)c1ccccc1` (centres unmarked) [Example 14, N-(3-(5-methyl-1,3,4-oxadiazol-2-yl)phenyl)-3-(3-(methylamino)-1-phenylpropoxy)benzamide]: the Ki in test [1] is 100 to 500 nM; in test [2] (Table 1), no less than 3000 nM; in test [2] (Table 2 (dual compounds)) it was no less than 3000 nM.

With `CNCCC(Oc1cccc(C(=O)Nc2cccnc2)c1)c1ccccc1` (centres unmarked) [Example 15, 3-(3-(Methylamino)-1-phenylpropoxy)-N-(pyridin-3-yl)benzamide], the Ki in test [1] was 100 to 500 nM; in test [2] (Table 1), no less than 3000 nM; in test [2] (Table 2 (dual compounds)), no less than 3000 nM.

With `CNCCC(Oc1cccc(C(=O)NCc2ccccc2)c1)c1ccccc1` (centres unmarked) [Example 17, N-benzyl-3-(3-(methylamino)-1-phenylpropoxy)benzamide], the values for the Ki in test [1], in test [2] (Table 1) and in test [2] (Table 2 (dual compounds)) were 500 to 1000 nM, no less than 3000 nM and no less than 3000 nM, respectively.

For `CNCCC(Oc1cccc(C(=O)NCc2ccccn2)c1)c1ccccc1` (centres unmarked) [Example 18, 3-(3-(Methylamino)-1-phenylpropoxy)-N-(pyridin-2-ylmethyl)benzamide], the values for the Ki in test [1], in test [2] (Table 1) and in test [2] (Table 2 (dual compounds)) were 500 to 1000 nM, no less than 3000 nM and no less than 3000 nM, respectively.

Take `CNCCNC(=O)c1cccc(OC(CCNC)c2ccccc2)c1` (centres unmarked) [Example 20, 3-(3-(Methylamino)-1-phenylpropoxy)-N-(2-(methylamino)ethyl)benzamide]: the Ki in test [1] is 500 to 1000 nM; in test [2] (Table 1), 500 to 3000 nM; in test [2] (Table 2 (dual compounds)) it was 500 to 3000 nM.

`CNCCC(Oc1cccc(C(=O)NC2CCN(C)CC2)c1)c1ccccc1` (centres unmarked) [Example 22, 3-(3-(Methylamino)-1-phenylpropoxy)-N-(1-methylpiperidin-4-yl)benzamide]: the Ki in test [1] was no less than 1000 nM; in test [2] (Table 1), 500 to 3000 nM; in test [2] (Table 2 (dual compounds)), 500 to 3000 nM.

Consider `CNCCC(Oc1cccc(N(C)C(=O)c2cccc(CN)c2)c1)c1ccccc1` (centres unmarked) [Example 27, 3-(Aminomethyl)-N-methyl-N-(3-(3-(methylamino)-1-phenylpropoxy)phenyl)benzamide], for which the Ki was 500 to 1000 nM in test [1], no less than 3000 nM in test [2] (Table 1) and no less than 3000 nM in test [2] (Table 2 (dual compounds)).

`CNCCC(Oc1cccc(N(C)C(=O)CCCN)c1)c1ccccc1` (centres unmarked) [Example 28, 4-Amino-N-methyl-N-(3-(3-(methylamino)-1-phenylpropoxy)phenyl)butanamide]: the Ki in test [1] is 500 to 1000 nM; in test [2] (Table 1), no less than 3000 nM; in test [2] (Table 2 (dual compounds)), no less than 3000 nM.

As to `CCNc1ncc(C(=O)N(C)c2cccc(COC(CCNC)c3cccs3)c2)c(N2CCCC2)n1` (centres unmarked) [Example 38, 2-(Ethylamino)-N-methyl-N-(3-((3-(methylamino)-1-(thiophen-2-yl)propoxy)methyl)phenyl)-4-(pyrrolidin-1-yl)pyrimidine-5-carboxamide], the Ki in test [1] was in the range of 500 to 1000 nM; in test [2] (Table 1), 500 to 3000 nM; in test [2] (Table 2 (dual compounds)), 500 to 3000 nM.

`CNCCC(OCc1cccc(NC(=O)c2ccccc2)c1)c1ccccc1` (centres unmarked) [Example 39, N-(3-((3-(methylamino)-1-phenylpropoxy)methyl)phenyl)benzamide]: the Ki in test [1] is 500 to 1000 nM; in test [2] (Table 1), no less than 3000 nM; in test [2] (Table 2 (dual compounds)), no less than 3000 nM.

As to `CNCCC(OCc1cccc(NC(=O)c2cnc(OC)nc2)c1)c1ccccc1` (centres unmarked) [Example 41, 2-Methoxy-N-(3-((3-(methylamino)-1-phenylpropoxy)methyl)phenyl)pyrimidine-5-carboxamide], the Ki was 500 to 1000 nM in test [1], no less than 3000 nM in test [2] (Table 1) and no less than 3000 nM in test [2] (Table 2 (dual compounds)).

Regarding `CNCCC(OCc1cccc(NC(=O)c2ccccn2)c1)c1ccccc1` (centres unmarked) [Example 43, N-(3-((3-(methylamino)-1-phenylpropoxy)methyl)phenyl)picolinamide], the results for the Ki in test [1], in test [2] (Table 1) and in test [2] (Table 2 (dual compounds)) were 500 to 1000 nM, no less than 3000 nM and no less than 3000 nM, respectively.

Consider `CNCCC(OCc1cccc(NC(=O)c2ccccc2)c1)c1cccs1` (centres unmarked) [Example 46, N-(3-((3-(methylamino)-1-(thiophen-2-yl)propoxy)methyl)phenyl)benzamide], for which the values for the Ki in test [1], in test [2] (Table 1) and in test [2] (Table 2 (dual compounds)) were 500 to 1000 nM, no less than 3000 nM and no less than 3000 nM, respectively.

As to `CNCCC(OCc1cccc(NC(=O)c2ccccc2F)c1)c1cccs1` (centres unmarked) [Example 48, 2-Fluoro-N-(3-((3-(methylamino)-1-(thiophen-2-yl)propoxy)methyl)phenyl)benzamide], the results for the Ki in test [1], in test [2] (Table 1) and in test [2] (Table 2 (dual compounds)) were 500 to 1000 nM, no less than 3000 nM and no less than 3000 nM, respectively.

In the case of `CCNc1ncc(C(=O)Nc2cccc(OC(CCNC)c3ccccc3)c2)c(N2CCCC2)n1` (centres unmarked) [Example 50, 2-(Ethylamino)-N-(3-(3-(methylamino)-1-phenylpropoxy)phenyl)-4-(pyrrolidin-1-yl)pyrimidine-5-carboxamide], the Ki in test [1] is 500 to 1000 nM; in test [2] (Table 1) it was no less than 3000 nM; in test [2] (Table 2 (dual compounds)) it was no less than 3000 nM.

Regarding `CNCCC(OCc1cccc(Nc2ccccc2)c1)c1ccccc1` (centres unmarked) [Example 58, 3-((3-(Methylamino)-1-phenylpropoxy)methyl)-N-phenylaniline], the values for the Ki in test [1], in test [2] (Table 1) and in test [2] (Table 2 (dual compounds)) were 100 to 500 nM, no less than 3000 nM and no less than 3000 nM, respectively.

Consider `CNCCC(OCc1cccc(Nc2ncccn2)c1)c1ccccc1` (centres unmarked) [Example 59, N-(3-((3-(methylamino)-1-phenylpropoxy)methyl)phenyl)pyrimidin-2-amine], for which the Ki in test [2] (Table 1) was no less than 3000 nM.

Consider `CCNc1ncc(C(=O)N(C)c2cccc(OC(CCNC)c3ccccc3)c2)cn1` (centres unmarked) [Example 60, 2-(Ethylamino)-N-methyl-N-(3-(3-(methylamino)-1-phenylpropoxy)phenyl)pyrimidine-5-carboxamide], for which the Ki in test [2] (Table 1) was no less than 3000 nM.

On to `CNCCC(OCc1cccc(N(C(C)=O)c2ccccc2)c1)c1ccccc1` (centres unmarked) [Example 61, N-(3-((3-(methylamino)-1-phenylpropoxy)methyl)phenyl)-N-phenylacetamide], for which the Ki in test [2] (Table 1) was no less than 3000 nM.

For `CNCCC(Oc1cccc(N(C)C(C)=O)c1)c1cccs1` (centres unmarked) [Example 62, N-methyl-N-(3-(3-(methylamino)-1-(thiophen-2-yl)propoxy)phenyl)acetamide], the Ki in test [2] (Table 1) was no less than 3000 nM.

With `CNCCC(Oc1cccc(N(C)C(=O)c2ccccc2)c1)c1cccs1` (centres unmarked) [Example 63, N-methyl-N-(3-(3-(methylamino)-1-(thiophen-2-yl)propoxy)phenyl)benzamide], the Ki in test [2] (Table 1) was no less than 3000 nM.

For the molecule `CCCC(=O)N(C)c1cccc(OC(CCNC)c2cccs2)c1` (centres unmarked) [Example 64, N-methyl-N-(3-(3-(methylamino)-1-(thiophen-2-yl)propoxy)phenyl)butyramide], the Ki in test [2] (Table 1) is no less than 3000 nM.

Take `CNCCC(Oc1cccc(N(C)C(=O)c2cccnc2)c1)c1cccs1` (centres unmarked) [Example 65, N-methyl-N-(3-(3-(methylamino)-1-(thiophen-2-yl)propoxy)phenyl)nicotinamide]: in test [2] (Table 1), the Ki is no less than 3000 nM.

Take `CNCCC(Oc1cccc(C(=O)Nc2ccccc2)c1)c1cccs1` (centres unmarked) [Example 66, 3-(3-(Methylamino)-1-(thiophen-2-yl)propoxy)-N-phenylbenzamide]: the Ki in test [2] (Table 1) fell in the range of 500 to 3000 nM.

In the case of `CNCCC(Oc1cccc(C(=O)N(C)c2ccccc2)c1)c1cccs1` (centres unmarked) [Example 67, N-methyl-3-(3-(methylamino)-1-(thiophen-2-yl)propoxy)-N-phenylbenzamide], in test [2] (Table 1), the Ki was no less than 3000 nM.

`CNCCC(Oc1cccc(C(=O)N(C)c2cccnc2)c1)c1ccccc1` (centres unmarked) [Example 68, N-methyl-3-(3-(methylamino)-1-phenylpropoxy)-N-(pyridin-3-yl)benzamide]: the Ki in test [2] (Table 1) was no less than 3000 nM.

Regarding `CNCCC(Oc1cccc(C(=O)N(C)c2ccccc2)c1)c1ccccc1` (centres unmarked) [Example 69, N-methyl-3-(3-(methylamino)-1-phenylpropoxy)-N-phenylbenzamide], in test [2] (Table 1), the Ki is no less than 3000 nM.

In the case of `CNCCC(Oc1ccc(CN(C)Cc2ccccc2)c(F)c1)c1cccs1` (centres unmarked) [Example 70, 3-(4-((Benzyl(methyl)amino)methyl)-3-fluorophenoxy)-N-methyl-3-(thiophen-2-yl)propan-1-amine], the Ki in test [1] was 100 to 500 nM; in test [2] (Table 1), no less than 3000 nM; in test [2] (Table 2 (dual compounds)), no less than 3000 nM.
